Experimental data as given in patent publication US11905518B2, “Small auxin upregulated (SAUR) gene for the improvement of root system architecture, waterlogging tolerance, drought resistance and yield in plants and methods of uses” (Curators of the University of Missouri, priority 2018, dated 2024).

System: NILs (NIL147_aa and NIL147_AA)
Assay: Waterlogging treatment of NILs with auxin biosynthesis inhibitor PCIB
Type: in vivo, soybean
Method: FIGS. 7A-7C depict involvement of auxin in the regulation of waterlogging tolerance. Complementation of qWL_Gm03 by auxin biosynthesis inhibitor in waterlogging tolerance (FIG. 7A) and induction of adventitious roots (FIG. 7B). The two lines were waterlogging treated for 10 days using water (control) and 10 μM p-Chlorophen-oxyisobutyric acid (PCIB: an auxin biosynthesis inhibitor). Then plants were allowed to recover for 7 days (left) before evaluation for flooding injury scores and adventitious root rating. Data shown are means±standard deviations of 9 biological replicates (soil pots) and each replicate contains 2 to 3 plants. Student's-t-test was used to compare means between NIL147_aa and NIL147_AA. FIG. 7C Expression of GmARF20 in the roots during waterlogging treatment. GmARF20 in soybean is the closest homologue of AtARF19 in Arabidopsis (Ha et al. 2013). Data shown are means±standard deviations of two biological replicates and each replicate contains 10 plants.
Waterlogging test were performed in both field and greenhouse. Field tests for RIL populations and fine-mapping were conducted at the Lee Farm at the DRC in Portageville, MO The evaluation of NILs were performed at four locations, including DRC (MO), Rhower Research Station (AR), Delta Research and Extension Center (MS) and Red River Research Station (LA). The soil types of the four locations were Sharkey clay (very fine, smectitic, thermic Chromic Epiaquerts). Each lines were planted in hill plots at a density of 8 seeds per plot with 1 meter spacing with 2 to 3 replications. Waterlogging treatments were imposed by flood irrigation. Water was pumped on the field when 80% of the lines within each maturity block were at the R1 growth stage (Fehr and Caviness 1977). […]
Auxin generally promotes root initiation and elongation (reviewed by Overvoorde et al. 2010). Therefore, the involvement of auxin in waterlogging tolerance was further evaluated by the treatment of an auxin biosynthesis inhibitor: p-Chlorophen-oxyisobutyric acid (PCIB) on the NILs (NIL147_aa and NIL147_AA) during waterlogging. […]

[1] = 10 μM PCIB vs water control, waterlogging treated for 10 days, 7 days recovery, NIL147_aa and NIL147_AA

## CC(C)(Oc1ccc(Cl)cc1)C(=O)O [PCIB, p-Chlorophen-oxyisobutyric acid]
10 μM PCIB during waterlogging, NIL147_aa vs NIL147_AA
  genotypic differences of qWL_Gm03 in waterlogging tolerance performance and formation of adventitious/aerial roots: complement the genotypic differences
[1]
  formation of adventitious/aerial roots (adventitious root rating): significantly impair
  waterlogging tolerance (flooding injury scores): significantly impair
